Reference: paper PMC10776578, “Epstein-Barr virus-driven B cell lymphoma mediated by a direct LMP1-TRAF6 complex” (Nature Communications, 2024)

Key:
TRAF6_346-504 = assay: NMR spectroscopy (1H,15N HSQC) of TRAF6 with LMP1 peptide; format: binding, human; conditions: 90 μM 15N-TRAF6, five-fold excess peptide, PBS pH 7.4, 10% D2O, 298 K
Method: For NMR, a His-SUMO-TRAF6 fusion construct was expressed in E. coli Rosetta2 DE3 cells from pET-hSu-TRAF6_346-504. The recombinant protein was uniformly labeled with ^15N by growing expression cultures in ^15N-autoinduction medium. TRAF6 protein was purified from cell lysate via IMAC using a Ni-NTA column. After elution, the protein was transferred to 100 mM Tris-HCl pH 8.0, 300 mM NaCl, 20 mM imidazole, and 5 mM β-mercaptoethanol. SUMO-hydrolase dtUD1 was added (ratio 1:50) and incubated overnight at 4 °C. After cleavage, the protein was subjected to a second Ni-NTA affinity chromatography step and then further purified via size-exclusion chromatography using a Superdex 75 10/300 GL column (Äkta system, GE Healthcare). SEC buffer was PBS ([…], 2.7 mM KCl, 10 mM Na2HPO4, 1.8 mM KH2PO4 pH 7.4, 5 mM β-ME) and was subsequently used in the following NMR experiments. NMR spectra were recorded at 298 K using a Bruker Avance 600 spectrometer with a QCI cryogenic probe and topspin v.3.2 software (Bruker BioSpin). Spectra were processed using NMRDraw v.8.7 of NMRPipe software[86] and analyzed with the CCPN Analysis software v.2.4.1[87]. NMR titrations were performed by recording ^1H,^15N HSQC experiments. For titrations of TRAF6, samples of 90 μM ^15N-labeled TRAF6 in PBS pH 7.4, 10% D2O, and 5 mM β-ME were used. […]

[1] = target: T1, GST-CD40 / His-TRAF6_310-522 (Homo sapiens, UniProt Q9Y4K3); assay: AlphaScreen PPI inhibition, CD40-TRAF6; format: binding; conditions: Figure 8 d; best-fit values; 0,03-30 µM peptide
T1 construct: AlphaScreen PPI experiments with GST-CD40 and His-TRAF6_310-522; made in house; host or cells: E. coli (BL21 Codon Plus RIPL for the His-TRAF protein; DH5α or BL21 Codon Plus RIPL for the GST protein)
Method: (§1) AlphaScreen experiments were performed in 96- or 384-well plates (Perkin Elmer, OptiPlate). In both assay formats, His-TRAF and GST-LMP1, GST-CD40, or GST-RANK proteins were incubated together in 40 µL of PBS (protein concentrations were calculated to the final reaction volume of 60 µL) supplemented with 0.5% BSA (Sigma, #A7030) and 0.1% Tween-20 (AppliChem, #A4974), for 1 h at room temperature (RT). If not indicated otherwise, standard protein concentrations were 300 nM for His-TRAF proteins and 100 nM for GST-LMP1 proteins. Ni-NTA-acceptor (Perkin Elmer, #6760619 C) and GST-acceptor (Perkin Elmer, # 6765300) beads were added each to a final concentration of 1–4 µg per mL in a final reaction volume of 60 µL and incubated for 1 h at RT in the dark. AlphaScreen PPI signals were measured in a CLARIOstar reader (BMG Labtech GmbH).
(§2) All statistical analyses were performed with Prism v10.1.0 software (GraphPad Software Inc.). Two-way ANOVA was performed on experiments with two factors of variance (Figs. 1e and 3a). […] For KD determination, the data from each experiment were cleaned for the hook effect (signal depletion by oversaturation of the beads) and analyzed using the equation one site-specific binding with hill slope (Figs. 1f–i, and Supplementary Fig. 1f). The IC50 was determined using the log(inhibitor) vs. response – variable slope (four parameters) equation (Fig. 8b and d). […]

[2] = target: T2, GST-LMP1_181-386 / His-TRAF6_310-522 (Homo sapiens, UniProt Q9Y4K3); assay: AlphaScreen PPI inhibition, LMP1-TRAF6; format: binding
T2 construct: recombinant GST-LMP1_181-386 and His-TRAF6_310-522; made in house; host or cells: E. coli (BL21 Codon Plus RIPL for the His-TRAF protein; DH5α or BL21 Codon Plus RIPL for the GST protein)
Method: as §1, §2

T1 sequence (Q9Y4K3 310-522): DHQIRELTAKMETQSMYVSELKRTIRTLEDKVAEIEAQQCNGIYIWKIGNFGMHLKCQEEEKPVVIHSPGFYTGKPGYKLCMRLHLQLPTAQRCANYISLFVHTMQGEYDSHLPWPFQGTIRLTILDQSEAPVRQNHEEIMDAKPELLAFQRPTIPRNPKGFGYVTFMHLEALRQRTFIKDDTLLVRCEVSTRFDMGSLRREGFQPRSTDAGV
T2 sequence (Q9Y4K3 310-522): as above

Row | Substance | NMR signals of TRAF6 upon peptide addition (in words) (TRAF6_346-504) | inhibition of CD40-TRAF6 interaction (in words) [1] | inhibition of LMP1-TRAF6 interaction (in words) [2]
1 | G378PVQLSYYD [LMP1 peptide G378PVQLSYYD, LMP1 peptide used in NMR titration] | the signals corresponding to some of the TRAF6 residues were broadened beyond detection |  | 
2 | DRQIKIWFQNRRMKWKK [control peptide] |  | no inhibition | inactive
